# Assay results reported in US20210353579A1, “HIGH PENETRATION COMPOSITIONS AND USES THEREOF” (Techfields Pharma Co., Ltd., priority 2006, published 2021).
# Legend:
# [1] = test system: Human breast cancer cells (BCAP-37); assay: Human breast cancer xenograft in nude mice, topical; conditions: day 42; 30 μl of 5% (1.5 mg) topically every 8 hours from day 14; control 800 ± 100
# Outline: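 BCAP-37 tumour tissue (2-3 mm^3) was xenografted subcutaneously into the front leg of nude BALB mice, 7 per group. Compounds were applied topically as 30 μl of 5% solution (1.5 mg) in acetone or water.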
# Chinese white rabbits = assay: Autologous blood clot pulmonary embolization, thrombus propagation; type: in vivo, rabbit; conditions: 20 mg/kg topically, after 2 days
# Description: Eighteen Chinese White rabbits weighing between 3.0 and 3.5 kg (aged 6-7 months) were selected and divided into three groups (control, P-1 and […] groups, n=6). One hour before the experiment, thrombi were made by aspirating venous blood (1 ml) into a sterilized bottle to clot. To avoid fragmentation and slow lysis, the autologous blood clots were stabilized in temperature-controlled (70° C.) distilled water for 10 min. After anesthesia, the femoral veins were exposed and distally isolated, and autologous blood clots (0.05 g/kg) were injected through an indwelling catheter (20 GA), which had been placed in the femoral vein isolated earlier. 50% acetone solution of diethylaminoethyl acetylsalicylate.acetylsalicylic acid salt (P-1, in acetone, 20 mg/kg) and diethylaminoethyl acetylsalicylsalicylate. acetylsalicylsalicylic acid salt (P-59, 20 mg/kg) were topically applied to the back of the rabbits. After 2 days, rabbits were euthanized with an excessive intravenous injection of sodium amobarbital (60 mg/kg). The lungs and hearts were isolated to observe whether thrombi were present in the pulmonary arteries. The lungs were immersed in 10% formalin for 24 h. Consecutive transverse sections along the obstructed pulmonary arteries were paraffin-embedded and stained with hematoxylin-eosine. […]
# [2] = test system: rats (SLAC/GK, type 2 diabetes); assay: Blood glucose in type 2 diabetes rats, oral with food; type: in vivo, rat
# Outline: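 Compounds (dosed equivalent to 20 mg/kg of NSAIAs) mixed in food and given orally daily for 5 weeks to rats (n=7). Non-fasting blood glucose measured every 3 days at 3 pm from week 2 to week 5; blood lipids measured at end of week 5.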
structure (smiles),measurement,setting,value
"CC(=O)Oc1ccccc1C(=O)O.CCN(CC)CCOC(=O)c1ccccc1OC(C)=O [P-1, diethylaminoethyl acetylsalicylate.acetylsalicylic acid salt]",Tumor size,[1],150 ± 50 mm^3
same,lung tissue and vascular walls (thrombus propagation),Chinese white rabbits,both lung tissue and vascular walls were normal
same,"Blood glucose, Diabetic rats, Average","[2]; average second to fifth week, no fasting, equal to 20 mg/kg of NSAIAs every day for 5 weeks",6.5 ± 1 mmol/L
same,"Blood glucose, Diabetic rats, Baseline","[2]; baseline, equal to 20 mg/kg of NSAIAs",16.5 ± 3 mmol/L
